Values of other authors as cited in US20190321375A1, “METHOD OF ADMINISTERING A NE[…] EFFECT ELECTROENCEPHALOGRAPHIC (EEG) BURST SUPPRESSION” (MARINUS PHARMACEUTICALS, INC., priority 2016, published 2019).
Like-named read-outs stand apart in the source and are kept apart here.

Key:
[1] = in vivo
patients = conditions: induction bolus

In the case of `CC(=O)[C@H]1CC[C@H]2[C@@H]3CC[C@H]4C[C@H](O)CC[C@]4(C)[C@H]3CC[C@]12C` [Allopregnanolone, 3α,5α-tetrahydroprogesterone], the oral availability [1] is listed as “poor oral availability” and the half-life (human plasma) is listed as 45 min.

In the case of `CC(=O)[C@H]1CC[C@H]2[C@@H]3CC[C@H]4C[C@](C)(O)CC[C@]4(C)[C@H]3CC[C@]12C` [Ganaxolone, 3α-hydroxy, 3β-methyl-5α-pregnan-20-one], the oral availability [1] is listed as “poor oral availability”, the half-life (human plasma following oral administration) is listed as “approximately 20 hours” and the Tmax (therapeutic blood levels are reached quickly) is listed as “short”.

In the case of `CC(C)c1cccc(C(C)C)c1O` [propofol], the “entry into burst suppression” value (patients) is given as “can enter burst suppression directly from the awake state”.
